In brackets after ≈: the same amount, converted by molar mass. Where a SMILES comes first, the peptide text is derived from it.
Legend:
[1] = system: Bacillus subtilis BGSC1A2; assay: microbe, parasite or virus in culture
Experimental: Microbroth dilution assays were performed as described in NCCLS M7-A5 (Vol. 20, No. 2). The assay was performed in a sterile 96 well plate, and the total volume per well was 100 μl. […] The inoculum was prepared by culturing Bacillus subtilis BGSC1A2 overnight in MHB medium at 35° C. with shaking at 200 rpm. The following day 0.5 ml of the overnight culture was used to inoculate MHB medium to obtain a culture in logarithmic phase growth as described in NCCLS M7-A5 (Vol. 20, No. 2) and M26-A (Vol. 19, No. 18). The actual colony forming units per well was confirmed by plating onto TSA or LB agar. Two wells were inoculated for a given concentration. The plates were incubated for 16 to 20 hours at 35° C. The MIC was defined as that concentration of antibiotic resulting in no visible growth of the organism.

[2] = system: Bacillus subtilis strain BGSC1A2; assay: Cell viability (colony forming units per ml) of cultures treated with sub-inhibitory antibiotic concentrations; assay type: cell-based; conditions: for colony forming units or viability: all sub-inhibitory concentrations tested (Table 3), versus untreated cultures
Experimental: […] The shake flasks were incubated at 37° C. and 200 rpm. At times 5, 15, 30 and 60 minutes after antibiotic addition, 100 ml and 1.1 ml samples were taken from each shake flask and processed as described above. After the 60 minute time point, 1.1 ml aliquots from each shake flask were taken every hour for four hours for optical density and cell viability measurements.
Cell viability was determined on all the samples by determining colony forming units per ml. Samples collected were diluted in MHB to obtain 10 to 500 colonies per plate as follows: samples collected at t=0 were diluted at 1:100,000; t=5 minutes, dilution was 1:150,000; t=15 minutes, dilution was 1:200,000; t=30 minutes, dilution was 1:250,000; t=1 hour, dilution was 1:300,000; t=1.5 hours, dilution was 1:400,000; t=2.5 hours, dilution was 1:800,000; and t=3.5 hours, dilution was 1:1,000,000. These dilutions factors can be changed as indicated by the response to the antibiotic being tested. For each diluted sample 20 μl and 40 μl aliquots were spread onto each of two pre-warmed LB agar plates, which were incubated overnight at 37° C. The number of colonies on each plate was counted to determine the colony forming units per ml of each sample.

[3] = system: Bacillus subtilis strain BGSC1A2; assay: Growth curve (optical density at 600 nm) of shake flask cultures treated with sub-inhibitory antibiotic concentrations; assay type: cell-based; conditions: for growth rate as measured by optical density at 600 nm: all sub-inhibitory concentrations tested (Table 3), versus untreated cultures
Experimental: Bacillus subtilis strain BGSC1A2 was streaked onto a LB agar plate and incubated overnight at 37° C. The cultured plate was stored at room temperature for up to one week. Fifty ml of MHB medium in a 250 ml flask was inoculated with one colony from the plate. The culture was incubated overnight at 37° C. and 200 rpm.
A 30.7 ml sample of the overnight culture was used to inoculate 3.6 liters of MHB medium pre-warmed at 37° C. After mixing the culture well, 600 ml aliquots were removed and placed into each of six 2.8 liter baffled shake flasks. A 1 ml sample of each flask was taken for optical density measurement at 600 nm, and the shake flasks were incubated at 37° C. and 200 rpm. One ml samples were taken from each flask every 30 minutes until the OD600 reached 0.2. At this point, which was designated time zero, 100 ml samples from each shake flask were taken, and 50 ml aliquots were placed in each of two 50 ml centrifuge tubes. In addition, 1.1 ml aliquots were taken from each flask with 1 ml used for an optical density measurement at 600 nm and 50 μl of each was placed in a microfuge tube at 4° C. The 50 ml samples were processed immediately by centrifugation at 4000 rpm at 4° C. for 7 minutes, and after centrifugation the supernatant was decanted being careful not to disturb the pellet which was immediately placed at −80° C. for total RNA isolation at a later time.
At time zero, different sub-inhibitory concentrations (0.1-1×MIC) of a given antibiotic were added to three of the shake flasks (Table 2) and the other three shake flasks were untreated. The shake flasks were incubated at 37° C. and 200 rpm. At times 5, 15, 30 and 60 minutes after antibiotic addition, 100 ml and 1.1 ml samples were taken from each shake flask and processed as described above. After the 60 minute time point, 1.1 ml aliquots from each shake flask were taken every hour for four hours for optical density and cell viability measurements.

[4] = system: Bacillus subtilis strain BGSC1A2; assay: as above; assay type: cell-based; conditions: 0.01 and 0.02 x MIC (0.0025 and 0.005 μg/ml)

Row | Compound | MIC ([1]; Bacillus subtilis, BGSC1A2) | colony forming units or viability [2] | growth rate as measured by optical density at 600 nm [3] | other results
1 | CC(C)C[C@@H](NC(=O)[C@H](C)NC(=O)CNC(=O)[C@@H](NC=O)C(C)C)C(=O)N[C@@H](C)C(=O)N[C@@H](C(=O)N[C@H](C(=O)N[C@@H](C(=O)N[C@@H](Cc1c[nH]c2ccccc12)C(=O)N[C@H](CC(C)C)C(=O)N[C@@H](Cc1c[nH]c2ccccc12)C(=O)N[C@H](CC(C)C)C(=O)N[C@@H](Cc1c[nH]c2ccccc12)C(=O)N[C@H](CC(C)C)C(=O)N[C@@H](Cc1c[nH]c2ccccc12)C(=O)NCCO)C(C)C)C(C)C)C(C)C [gramicidin A] (HELM PEPTIDE1{[O=C[*:2]].V.G.A.[dL].A.[dV].V.[dV].W.[dL].W.[dL].W.[dL].W.[OCCN[*:1]]}$$$$V2.0; N-terminus and C-terminus assumed) | – | – | – | MIC ([1]; BGSC1A2): 8.0 µg/mL (≈ 4.25 µM)
2 | O=C(N[C@H](CO)[C@H](O)c1ccc([N+](=O)[O-])cc1)C(Cl)Cl [chloramphenicol] | 2 to 4 µg/mL (≈ 6.19 to 12.4 µM) | – | – | –
3 | munumbicin B | – | decrease in colony forming units or viability | – | –
4 | CO[C@@H]1[C@@H](OC(N)=O)[C@@H](O)[C@H](Oc2ccc3c(O)c(NC(=O)c4ccc(O)c(CC=C(C)C)c4)c(=O)oc3c2C)OC1(C)C [novobiocin] | 2 µg/mL (≈ 3.26 µM) | – | – | –
5 | CC[C@H]1OC(=O)[C@H](C)[C@@H](O[C@H]2C[C@@](C)(OC)[C@@H](O)[C@H](C)O2)[C@H](C)[C@@H](O[C@@H]2O[C@H](C)C[C@H](N(C)C)[C@H]2O)[C@](C)(O)C[C@@H](C)C(=O)[C@H](C)[C@@H](O)[C@]1(C)O [erythromycin] | 0.125 to 0.25 µg/mL (≈ 0.17 to 0.341 µM) | decrease in colony forming units or viability | decrease in growth rate that was dose dependent | –
6 | COc1cc(Cc2cnc(N)nc2N)cc(OC)c1OC [trimethoprim] | 0.25 µg/mL (≈ 0.861 µM) | did not lead to a change in colony forming units or viability | did not have an effect on growth rate | –
7 | CO[C@H]1/C=C/O[C@@]2(C)Oc3c(C)c(O)c4c(O)c(c(/C=N/N5CCN(C)CC5)c(O)c4c3C2=O)NC(=O)/C(C)=C\C=C\[C@H](C)[C@H](O)[C@@H](C)[C@@H](O)[C@@H](C)[C@H](OC(C)=O)[C@@H]1C [rifampin] | 0.25 to 0.5 µg/mL (≈ 0.304 to 0.608 µM) | – | – | colony forming units ([2]; 0.01 or 0.02 x MIC (0.0025 and 0.005 μg/ml)): no effect on colony forming units; growth rate as measured by optical density [4]: very little effect if any
8 | CC(=O)OCC1=C(C(=O)O)N2C(=O)[C@@H](NC(=O)Cc3cccs3)[C@H]2SC1 [cephalothin] | 0.0156 to 0.0625 µg/mL (≈ 0.0393 to 0.158 µM) | decrease in colony forming units or viability | – | growth rate as measured by optical density ([3]; 0.00156 μg/ml (0.1 x MIC)): very little effect, if any; growth rate as measured by optical density ([3]; 0.0078 μg/ml (0.50 x MIC)): moderate decrease; growth rate as measured by optical density ([3]; 0.0156 μg/ml (1.0 x MIC)): large
9 | CN[C@H](CC(C)C)C(=O)N[C@H]1C(=O)N[C@@H](CC(N)=O)C(=O)N[C@H]2C(=O)N[C@H]3C(=O)N[C@H](C(=O)N[C@H](C(=O)O)c4cc(O)cc(O)c4-c4cc3ccc4O)[C@H](O)c3ccc(c(Cl)c3)Oc3cc2cc(c3O[C@@H]2O[C@H](CO)[C@@H](O)[C@H](O)[C@H]2O[C@H]2C[C@](C)(N)[C@H](O)[C@H](C)O2)Oc2ccc(cc2Cl)[C@H]1O [vancomycin] | 0.125 to 0.25 µg/mL (≈ 0.0863 to 0.173 µM) | no effect on viability | very little effect, if any | –
10 | CCn1cc(C(=O)O)c(=O)c2ccc(C)nc21 [nalidixic acid] | 4 µg/mL (≈ 17.2 µM) | – | – | –
11 | gentamicin | – | decrease in colony forming units or viability | very little effect if any | MIC ([1]; no visible growth after 16 to 20 hours at 35° C., MHB medium): 0.125 to 0.25 µg/mL
12 | CCn1cc(C(=O)O)c(=O)c2cc(F)c(N3CCNCC3)cc21 [norfloxacin] | 0.5 µg/mL (≈ 1.57 µM) | decrease in colony forming units or viability | very little effect, if any | –
13 | O=C(O)c1cn(C2CC2)c2cc(N3CCNCC3)c(F)cc2c1=O [ciprofloxacin] | – | decrease in colony forming units or viability | – | –
14 | [H]/N=C(/N)N[C@H]1[C@H](O)[C@@H](O)[C@H](O[C@@H]2O[C@@H](C)[C@](O)(C=O)[C@H]2O[C@@H]2O[C@@H](CO)[C@H](O)[C@@H](O)[C@@H]2NC)[C@@H](N/C(N)=N\[H])[C@@H]1O [streptomycin] | 4 to 8 µg/mL (≈ 6.88 to 13.8 µM) | decrease in colony forming units or viability | – | growth rate as measured by optical density ([3]; 0.8 μg/ml (0.1 x MIC)): growth rate similar to the untreated cultures; growth rate as measured by optical density ([3]; 4.0 μg/ml (0.50 x MIC)): moderate decrease in growth rate; growth rate as measured by optical density ([3]; 8.0 μg/ml (1.0 x MIC)): large

— patent publication US20050074844A1, “Methods for identifying markers of antimicrobial compounds” (priority 2002, published 2005)
